Assay results from patent US20110230481A2, “DERIVATIVES OF TETRABROMOBENZIMIDAZOLE, A PROCESS FOR THE PREPARATION THEREOF, A PHARMACEUTICAL COMPOSITION COMPRISING THE SAME, A METHOD OF USING THE SAME, A METHOD FOR MODULATING OR REGULATING SERINE/THREONINE KINASES, AND SERINE/THREONINE KINASES MODULATING AGENT” (SELVITA S.A., priority 2009, published 2011).

Tests used:
Experiment in all cases: KINOMEscan Max
Type in all cases: binding
[1] = molecular target: ABL1(T315I)-phosphorylated (Homo sapiens, UniProt P00519, T315I)
How it was run: (§1)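 qPCR read-out of a DNA tag measures how much tagged kinase stays bound to immobilized active-site ligand when test compound is present, i.e. competition binding.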

[2] = molecular target: T1, ACVR2B (Homo sapiens, UniProt Q13705); conditions: 1 μM
T1 construct: DNA tag (qPCR label); purchased Ambit Kinomescan (contract screening)
How it was run: as §1

[3] = molecular target: T2, ALK (Homo sapiens, UniProt Q9UM73)
T2 construct: DNA tag (qPCR label); purchased Ambit Kinomescan (contract screening)
How it was run: as §1

[4] = molecular target: T3, ASK1 (Homo sapiens, UniProt Q99683)
T3 construct: DNA tag (qPCR label); purchased Ambit Kinomescan (contract screening)
How it was run: as §1

[5] = molecular target: T4, BMX (Homo sapiens, UniProt P51813)
T4 construct: DNA tag (qPCR read-out)
How it was run: as §1

[6] = molecular target: CAMK2A (Homo sapiens, UniProt Q9UQM7)
How it was run: as §1

[7] = molecular target: T5, EGFR(L747-T751del.Sins) (Homo sapiens, UniProt P00533, DEL747-750/T751S); conditions: 1 μM
T5 construct: purchased Ambit (KINOMEscan Max panel service)
How it was run: as §1

[8] = molecular target: EGFR(L858R) (Homo sapiens, UniProt P00533, L858R); conditions: 1 μM
EGFR(L858R), sequence (P00533 25-1210 L858R): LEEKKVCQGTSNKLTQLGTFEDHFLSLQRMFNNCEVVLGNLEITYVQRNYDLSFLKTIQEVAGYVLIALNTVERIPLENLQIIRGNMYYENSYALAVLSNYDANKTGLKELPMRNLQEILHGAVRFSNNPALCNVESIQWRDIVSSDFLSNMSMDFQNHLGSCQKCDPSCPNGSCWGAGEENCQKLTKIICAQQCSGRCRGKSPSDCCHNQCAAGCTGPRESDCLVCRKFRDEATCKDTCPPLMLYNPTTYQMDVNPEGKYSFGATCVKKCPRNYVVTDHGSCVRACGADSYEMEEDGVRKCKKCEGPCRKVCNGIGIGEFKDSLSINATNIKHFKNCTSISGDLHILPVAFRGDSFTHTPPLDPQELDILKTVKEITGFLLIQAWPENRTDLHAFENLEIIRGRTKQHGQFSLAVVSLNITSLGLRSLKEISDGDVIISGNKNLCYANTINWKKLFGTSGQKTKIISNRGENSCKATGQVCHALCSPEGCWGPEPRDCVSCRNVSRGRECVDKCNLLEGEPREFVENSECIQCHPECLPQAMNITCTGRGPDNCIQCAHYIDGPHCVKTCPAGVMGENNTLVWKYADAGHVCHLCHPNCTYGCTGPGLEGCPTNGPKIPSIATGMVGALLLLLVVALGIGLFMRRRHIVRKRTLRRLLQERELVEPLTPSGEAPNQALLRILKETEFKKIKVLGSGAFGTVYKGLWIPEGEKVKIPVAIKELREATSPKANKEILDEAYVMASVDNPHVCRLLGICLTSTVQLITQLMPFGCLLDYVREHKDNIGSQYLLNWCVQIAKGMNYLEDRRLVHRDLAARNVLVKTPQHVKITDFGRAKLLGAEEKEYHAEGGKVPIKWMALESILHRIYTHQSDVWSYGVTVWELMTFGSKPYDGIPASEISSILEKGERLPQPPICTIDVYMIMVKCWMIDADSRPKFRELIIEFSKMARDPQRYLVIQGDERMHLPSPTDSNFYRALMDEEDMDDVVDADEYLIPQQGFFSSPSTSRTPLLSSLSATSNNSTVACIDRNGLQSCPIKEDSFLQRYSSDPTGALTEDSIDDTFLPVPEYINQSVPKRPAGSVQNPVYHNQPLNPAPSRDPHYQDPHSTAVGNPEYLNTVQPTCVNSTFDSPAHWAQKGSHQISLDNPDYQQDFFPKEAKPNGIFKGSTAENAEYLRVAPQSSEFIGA
How it was run: as §1

[9] = molecular target: T6, EGFR(T790M) (Homo sapiens, UniProt P00533, T790M); conditions: 1 μM
T6 construct: purchased Ambit (KINOMEscan Max panel service)
How it was run: as §1

[10] = molecular target: T7, EIF2AK1 (Homo sapiens, UniProt Q9BQI3)
T7 construct: DNA tag (qPCR read-out)
How it was run: as §1

[11] = molecular target: T8, FAK (Homo sapiens, UniProt Q05397)
T8 construct: DNA tag (qPCR read-out)
T8 sequence (Q05397 whole entry): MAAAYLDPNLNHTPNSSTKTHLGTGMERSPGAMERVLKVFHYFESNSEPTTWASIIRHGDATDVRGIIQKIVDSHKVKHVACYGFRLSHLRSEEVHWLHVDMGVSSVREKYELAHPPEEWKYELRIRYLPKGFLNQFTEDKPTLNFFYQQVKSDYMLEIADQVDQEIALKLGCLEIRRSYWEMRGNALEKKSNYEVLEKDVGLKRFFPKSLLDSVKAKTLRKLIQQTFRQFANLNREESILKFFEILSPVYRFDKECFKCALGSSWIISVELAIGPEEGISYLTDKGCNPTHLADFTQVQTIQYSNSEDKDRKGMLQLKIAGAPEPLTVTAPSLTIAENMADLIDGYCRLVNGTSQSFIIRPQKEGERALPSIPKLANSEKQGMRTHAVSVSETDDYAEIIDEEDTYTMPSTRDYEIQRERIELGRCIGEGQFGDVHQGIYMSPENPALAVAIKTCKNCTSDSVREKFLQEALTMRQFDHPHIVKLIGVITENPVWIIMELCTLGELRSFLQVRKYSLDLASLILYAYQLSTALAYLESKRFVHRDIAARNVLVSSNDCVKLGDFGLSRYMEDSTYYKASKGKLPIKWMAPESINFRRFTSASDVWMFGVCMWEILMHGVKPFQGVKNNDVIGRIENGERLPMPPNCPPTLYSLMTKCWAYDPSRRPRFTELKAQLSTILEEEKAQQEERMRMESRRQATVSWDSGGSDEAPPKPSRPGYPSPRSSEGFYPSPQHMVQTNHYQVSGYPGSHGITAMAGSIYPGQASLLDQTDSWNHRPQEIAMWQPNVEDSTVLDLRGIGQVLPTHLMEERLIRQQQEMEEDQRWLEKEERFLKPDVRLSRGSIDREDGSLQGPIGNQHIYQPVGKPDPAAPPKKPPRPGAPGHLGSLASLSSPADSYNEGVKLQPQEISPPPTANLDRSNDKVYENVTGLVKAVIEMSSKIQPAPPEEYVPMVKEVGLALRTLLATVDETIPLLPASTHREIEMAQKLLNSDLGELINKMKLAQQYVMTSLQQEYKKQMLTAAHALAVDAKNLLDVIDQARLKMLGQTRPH
How it was run: as §1

[12] = molecular target: T9, GAK (Homo sapiens, UniProt O14976)
T9 construct: purchased Ambit (KINOMEscan Max service)
How it was run: as §1

[13] = molecular target: T10, INSR (Homo sapiens, UniProt P06213)
T10 construct: DNA tag (qPCR read-out)
How it was run: as §1

[14] = molecular target: T11, LOK (Homo sapiens, UniProt O94804); conditions: 1 μM
T11 construct: purchased Ambit Kinomescan (contract panel)
How it was run: as §1

[15] = molecular target: MAP4K5 (Homo sapiens, UniProt Q9Y4K4)
How it was run: as §1

[16] = molecular target: T12, MAPKAPK2 (Homo sapiens, UniProt P49137)
T12 construct: purchased Ambit Kinomescan (contract panel)
How it was run: as §1

[17] = molecular target: T13, PIK3CA(C420R) (Homo sapiens, UniProt P42336, C420R)
T13 construct: DNA tag (qPCR read-out)
T13 sequence (P42336 whole entry C420R): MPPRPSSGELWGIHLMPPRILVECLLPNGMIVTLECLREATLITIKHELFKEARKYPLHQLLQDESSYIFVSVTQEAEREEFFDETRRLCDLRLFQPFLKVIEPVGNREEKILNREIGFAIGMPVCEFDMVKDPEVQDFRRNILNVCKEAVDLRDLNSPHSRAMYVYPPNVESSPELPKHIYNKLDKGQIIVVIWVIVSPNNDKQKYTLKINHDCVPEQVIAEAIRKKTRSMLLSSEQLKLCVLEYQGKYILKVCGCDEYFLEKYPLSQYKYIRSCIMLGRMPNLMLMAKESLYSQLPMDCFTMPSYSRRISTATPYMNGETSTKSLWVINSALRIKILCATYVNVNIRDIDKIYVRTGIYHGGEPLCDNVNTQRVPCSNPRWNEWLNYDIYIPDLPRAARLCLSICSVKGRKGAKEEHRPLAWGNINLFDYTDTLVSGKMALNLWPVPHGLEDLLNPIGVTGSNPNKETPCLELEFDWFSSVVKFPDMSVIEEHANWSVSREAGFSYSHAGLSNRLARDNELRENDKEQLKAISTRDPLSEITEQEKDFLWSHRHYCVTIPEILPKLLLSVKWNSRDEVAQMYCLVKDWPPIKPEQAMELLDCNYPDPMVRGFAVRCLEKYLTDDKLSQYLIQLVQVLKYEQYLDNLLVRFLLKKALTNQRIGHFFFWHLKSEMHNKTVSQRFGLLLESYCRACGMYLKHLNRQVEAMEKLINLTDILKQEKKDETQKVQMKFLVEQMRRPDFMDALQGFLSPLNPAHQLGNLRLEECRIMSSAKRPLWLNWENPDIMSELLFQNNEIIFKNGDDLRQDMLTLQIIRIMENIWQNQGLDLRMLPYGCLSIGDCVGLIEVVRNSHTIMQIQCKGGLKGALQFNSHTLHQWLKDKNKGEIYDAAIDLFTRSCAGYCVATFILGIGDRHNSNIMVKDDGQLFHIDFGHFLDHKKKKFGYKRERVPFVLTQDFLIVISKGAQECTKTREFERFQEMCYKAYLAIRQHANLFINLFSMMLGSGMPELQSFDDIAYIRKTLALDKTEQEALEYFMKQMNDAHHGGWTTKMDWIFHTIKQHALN
How it was run: as §1

[18] = molecular target: PIK3CA(E545K) (Homo sapiens, UniProt P42336, E545K)
PIK3CA(E545K), sequence (P42336 whole entry E545K): as the sequence (P42336 whole entry C420R) above, with R420C, E545K counted along it
How it was run: as §1

[19] = molecular target: T14, PIK3CA(H1047Y) (Homo sapiens, UniProt P42336, H1047Y)
T14 construct: DNA tag (qPCR read-out)
T14 sequence (P42336 whole entry H1047Y): as the sequence (P42336 whole entry C420R) above, with R420C, H1047Y counted along it
How it was run: as §1

[20] = molecular target: T15, PKAC-alpha (Homo sapiens, UniProt P17612)
T15 construct: purchased Ambit (KINOMEscan Max service)
How it was run: as §1

[21] = molecular target: T16, PKN1 (Homo sapiens, UniProt Q16512)
T16 construct: DNA tag (qPCR read-out)
T16 sequence (Q16512 whole entry): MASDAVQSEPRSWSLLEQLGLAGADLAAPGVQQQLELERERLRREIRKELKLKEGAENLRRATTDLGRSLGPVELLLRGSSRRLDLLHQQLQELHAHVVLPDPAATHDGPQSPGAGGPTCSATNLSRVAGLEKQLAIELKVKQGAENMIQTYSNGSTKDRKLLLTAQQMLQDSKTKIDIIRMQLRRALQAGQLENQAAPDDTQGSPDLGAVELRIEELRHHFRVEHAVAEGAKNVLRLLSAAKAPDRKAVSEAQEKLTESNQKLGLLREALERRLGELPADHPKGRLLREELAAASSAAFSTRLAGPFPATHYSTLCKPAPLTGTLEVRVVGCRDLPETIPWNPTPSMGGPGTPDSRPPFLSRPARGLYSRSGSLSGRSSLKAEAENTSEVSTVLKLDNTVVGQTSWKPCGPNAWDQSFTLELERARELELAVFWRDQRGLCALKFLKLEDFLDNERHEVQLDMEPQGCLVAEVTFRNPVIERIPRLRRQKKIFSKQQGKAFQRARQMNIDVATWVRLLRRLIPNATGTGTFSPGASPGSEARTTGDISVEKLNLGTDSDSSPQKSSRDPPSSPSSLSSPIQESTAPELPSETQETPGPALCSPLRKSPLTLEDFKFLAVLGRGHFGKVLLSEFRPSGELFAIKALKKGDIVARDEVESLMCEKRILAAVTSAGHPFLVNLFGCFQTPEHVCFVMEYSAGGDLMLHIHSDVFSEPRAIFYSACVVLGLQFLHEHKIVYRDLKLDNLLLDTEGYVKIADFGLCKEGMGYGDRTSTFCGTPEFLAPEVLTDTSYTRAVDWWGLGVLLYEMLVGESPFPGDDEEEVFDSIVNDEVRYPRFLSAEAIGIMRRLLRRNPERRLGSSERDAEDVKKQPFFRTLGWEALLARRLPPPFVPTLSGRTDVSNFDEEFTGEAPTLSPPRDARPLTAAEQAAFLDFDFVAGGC
How it was run: as §1

[22] = molecular target: T17, PLK2 (Homo sapiens, UniProt Q9NYY3); conditions: 1 μM
T17 construct: DNA tag (qPCR read-out)
T17 sequence (Q9NYY3 whole entry): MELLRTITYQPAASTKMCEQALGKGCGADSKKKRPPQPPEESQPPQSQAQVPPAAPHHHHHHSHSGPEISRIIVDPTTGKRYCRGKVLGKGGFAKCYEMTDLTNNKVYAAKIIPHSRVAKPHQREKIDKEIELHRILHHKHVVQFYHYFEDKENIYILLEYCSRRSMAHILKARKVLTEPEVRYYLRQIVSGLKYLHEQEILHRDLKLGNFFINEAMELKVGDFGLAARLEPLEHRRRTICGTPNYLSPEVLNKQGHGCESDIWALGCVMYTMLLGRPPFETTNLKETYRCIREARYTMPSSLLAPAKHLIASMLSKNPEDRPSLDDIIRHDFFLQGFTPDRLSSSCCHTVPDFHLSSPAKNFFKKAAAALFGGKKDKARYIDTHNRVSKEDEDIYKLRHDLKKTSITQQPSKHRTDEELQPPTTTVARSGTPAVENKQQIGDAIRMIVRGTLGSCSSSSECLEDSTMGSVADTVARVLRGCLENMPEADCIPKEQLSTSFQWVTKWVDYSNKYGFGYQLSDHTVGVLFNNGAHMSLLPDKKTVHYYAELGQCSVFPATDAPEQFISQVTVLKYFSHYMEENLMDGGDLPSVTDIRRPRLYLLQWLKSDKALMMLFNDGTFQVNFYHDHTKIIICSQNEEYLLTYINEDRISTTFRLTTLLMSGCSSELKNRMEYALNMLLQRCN
How it was run: as §1

[23] = molecular target: T18, PRKCE (Homo sapiens, UniProt Q02156)
T18 construct: DNA tag (qPCR read-out); purchased Ambit Kinomescan
How it was run: as §1

[24] = molecular target: T19, PRKCH (Homo sapiens, UniProt P24723)
T19 construct: DNA tag (qPCR read-out); purchased Ambit Kinomescan
How it was run: as §1

[25] = molecular target: T20, PRP4 (Homo sapiens, UniProt Q13523)
T20 construct: purchased Ambit (KINOMEscan Max service)
How it was run: as §1

[26] = molecular target: T21, RET(V804L) (Homo sapiens, UniProt P07949, V804L)
T21 construct: DNA tag (qPCR read-out)
How it was run: as §1

[27] = molecular target: T22, RIPK5 (Homo sapiens, UniProt Q6XUX3)
T22 construct: DNA tag (qPCR read-out)
How it was run: as §1

[28] = molecular target: T23, SGK3 (Homo sapiens, UniProt Q96BR1)
T23 construct: DNA tag (qPCR read-out)
How it was run: as §1

[29] = molecular target: SLK (Homo sapiens, UniProt Q9H2G2)
How it was run: as §1

[30] = molecular target: T24, TNIK (Homo sapiens, UniProt Q9UKE5)
T24 construct: purchased Ambit Kinomescan (contract screening service)
How it was run: as §1

[31] = molecular target: T25, TTK (Homo sapiens, UniProt P33981)
T25 construct: purchased Ambit Kinomescan (contract screening service)
How it was run: as §1

[32] = molecular target: T26, YES (Homo sapiens, UniProt P07947)
T26 construct: purchased Ambit Kinomescan (contract screening service)
How it was run: as §1

[33] = molecular target: YSK4 (Homo sapiens, UniProt Q56UN5)
How it was run: as §1

[34] = molecular target: ZAK (Homo sapiens, UniProt Q9NYL2)
How it was run: as §1

In the case of `NCCCNc1nc2c(Br)c(Br)c(Br)c(Br)c2[nH]1` [Compound 11, N-(3-aminopropyl)-4,5,6,7-tetrabromo-1H-benzo[d]imidazol-2-amine], the remaining binding at 1 µM [1] was 100%, the “% binding” value [2] was 100% and the remaining binding at 1 µM [3] was 100%. For the same compound, the remaining binding at 1 µM [4] was 100%, the remaining binding at 1 µM [5] was 88% and the remaining binding at 1 µM [6] was 96%. The “% binding” value [7] was 100%, the “% binding” value [8] was 96% and the “% binding” value [9] was 100%. It also gave a remaining binding at 1 µM [10] of 89%, a remaining binding at 1 µM [11] of 89% and a remaining binding at 1 µM [12] of 81%. The remaining binding at 1 µM [13] was 41%, the “% binding” value [14] was 100% and the remaining binding at 1 µM [15] was 98%. For the same compound, the remaining binding at 1 µM [16] was 100%, the remaining binding at 1 µM [17] was 100% and the remaining binding at 1 µM [18] was 92%. The remaining binding at 1 µM [19] was 100%, the remaining binding at 1 µM [20] was 68% and the remaining binding at 1 µM [21] was 100%. The “% binding” value [22] was 31%, the remaining binding at 1 µM [23] was 23% and the remaining binding at 1 µM [24] was 23%. It also gave a remaining binding at 1 µM [25] of 84%, a remaining binding at 1 µM [26] of 100% and a remaining binding at 1 µM [27] of 100%. For the same compound, the remaining binding at 1 µM [28] was 100%, the remaining binding at 1 µM [29] was 92% and the remaining binding at 1 µM [30] was 100%. It also gave a remaining binding at 1 µM [31] of 100%, a remaining binding at 1 µM [32] of 100% and a remaining binding at 1 µM [33] of 95%. The remaining binding at 1 µM [34] was 98%.
